Results from patent publication US20250262241A1, “METHODS TO IMPROVE STABILITY OF VIRUS TRANSDUCTION OF y8 T CELLS AND APPLICATIONS THEREOF” (UNICET BIOTECH CO. LLC., priority 2021, published 2025).
Read-outs that look alike come from different tables or passages of the source.

Tests used:
γδ2 T cells [1] = test: CAR (B7H3) related lentivirus transduction of γδ2 T cells with small inhibitors: transduction rate; assay type: cell-based, human
Method: VSV-G pseudotyped lentiviral vectors were applied in this method. 1×10^7 293T cells were plated into a poly-D-lysine coated 100 mm dish. Next day the cells were transfected with 6 μg of pCDH-EF1-MCS-T2A-copGFP plasmid (Addgene, Plasmid #72263) or pCDH-EF1-CAR-T2A-copGFP plasmid modified from pCDH-EF1-MCS-T2A-copGFP, 4 μg of pspAx2 (Addgene, Plasmid #12260), 2 μg of pCMV-VSV-G (Addgene, Plasmid #8454) using 30 ug PEI transfection regents. After 8 hours of transfection, the cell culture medium was changed. The supernatant were collected 48 hours and 72 hours later. Concentrated the virus with Lenti-X™ Concentrator (Takara) and monitored the virus titers by transduction of 293T cells and stored the concentrated virus in −80° C. until further use.
(§1) For lentivirus transduction, 1×10^CFU lentivirus diluted in 200 ul PBS were added in a 24-well plate which were pre-coated with RetroNectin reagent (Takara) and centrifugated by 2,000 g for 2 hours at 32° C. After centrifugation, removed the supernatant and washed the plate with PBS three times slightly.
For the virus transduction of γδ2 T cells, seeded 1×10^PBMCs which were in vitro cultured after 48 hours in the γδ2 T cell culture medium mentioned above (Gibco serum free medium with rhIL-2 and ZOL). Added or not small inhibitors and mixed well and concentrated the cells by 800 g for 10 mins at 32° C. The plates were incubated at 37° C., 5% CO2. Discarded the small inhibitors regent by changing the cell culture medium 24 hours later.
Calculate the cell number by an automated cell counter and the transduction rate (GFP positive rate) was analyzed by flow cytometry every 2 to 3 days. The transduction rate was monitored in the gate of γδ2 or γδ1 T cells.

γδ2 T cells [2] = assay type: cell-based, human
Method: (§2) The plates were incubated at 37° C., 5% CO2.

γδ1 T cells = test: CAR related lentivirus transduction of γδ1 T cells with small inhibitors; assay type: cell-based, human; conditions: control finally around 2%
Method: as §1, §2
To test the application of these small molecule on improving the transduction rate of δδ1 T cells. We evaluated the transduction rate of δδ1 T cells with/without different dosage of small molecules.

[3] = target: ubiquitin-specific protease USP7 (Homo sapiens, UniProt Q93009); conditions: cited from earlier work
[4] = target: T1, ubiquitin-specific protease USP21 (Homo sapiens, UniProt Q9UK80); conditions: cited from earlier work
T1 sequence (Q9UK80 1-565): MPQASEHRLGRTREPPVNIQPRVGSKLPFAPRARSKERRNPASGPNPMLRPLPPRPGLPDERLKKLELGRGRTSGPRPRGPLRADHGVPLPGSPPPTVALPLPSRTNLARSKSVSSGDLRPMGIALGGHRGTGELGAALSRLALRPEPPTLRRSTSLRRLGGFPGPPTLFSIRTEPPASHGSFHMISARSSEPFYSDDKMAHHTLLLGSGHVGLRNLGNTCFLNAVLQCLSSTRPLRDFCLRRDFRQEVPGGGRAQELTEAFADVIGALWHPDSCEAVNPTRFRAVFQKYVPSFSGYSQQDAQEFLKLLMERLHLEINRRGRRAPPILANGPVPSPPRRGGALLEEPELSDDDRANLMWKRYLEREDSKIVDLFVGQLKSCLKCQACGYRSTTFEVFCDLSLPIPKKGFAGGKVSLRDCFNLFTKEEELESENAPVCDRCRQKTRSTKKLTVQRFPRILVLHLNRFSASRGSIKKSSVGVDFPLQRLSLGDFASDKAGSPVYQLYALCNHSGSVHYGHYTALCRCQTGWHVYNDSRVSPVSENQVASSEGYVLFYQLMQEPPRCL

Chain of ubiquitin-specific protease USP7 (Q93009 whole entry): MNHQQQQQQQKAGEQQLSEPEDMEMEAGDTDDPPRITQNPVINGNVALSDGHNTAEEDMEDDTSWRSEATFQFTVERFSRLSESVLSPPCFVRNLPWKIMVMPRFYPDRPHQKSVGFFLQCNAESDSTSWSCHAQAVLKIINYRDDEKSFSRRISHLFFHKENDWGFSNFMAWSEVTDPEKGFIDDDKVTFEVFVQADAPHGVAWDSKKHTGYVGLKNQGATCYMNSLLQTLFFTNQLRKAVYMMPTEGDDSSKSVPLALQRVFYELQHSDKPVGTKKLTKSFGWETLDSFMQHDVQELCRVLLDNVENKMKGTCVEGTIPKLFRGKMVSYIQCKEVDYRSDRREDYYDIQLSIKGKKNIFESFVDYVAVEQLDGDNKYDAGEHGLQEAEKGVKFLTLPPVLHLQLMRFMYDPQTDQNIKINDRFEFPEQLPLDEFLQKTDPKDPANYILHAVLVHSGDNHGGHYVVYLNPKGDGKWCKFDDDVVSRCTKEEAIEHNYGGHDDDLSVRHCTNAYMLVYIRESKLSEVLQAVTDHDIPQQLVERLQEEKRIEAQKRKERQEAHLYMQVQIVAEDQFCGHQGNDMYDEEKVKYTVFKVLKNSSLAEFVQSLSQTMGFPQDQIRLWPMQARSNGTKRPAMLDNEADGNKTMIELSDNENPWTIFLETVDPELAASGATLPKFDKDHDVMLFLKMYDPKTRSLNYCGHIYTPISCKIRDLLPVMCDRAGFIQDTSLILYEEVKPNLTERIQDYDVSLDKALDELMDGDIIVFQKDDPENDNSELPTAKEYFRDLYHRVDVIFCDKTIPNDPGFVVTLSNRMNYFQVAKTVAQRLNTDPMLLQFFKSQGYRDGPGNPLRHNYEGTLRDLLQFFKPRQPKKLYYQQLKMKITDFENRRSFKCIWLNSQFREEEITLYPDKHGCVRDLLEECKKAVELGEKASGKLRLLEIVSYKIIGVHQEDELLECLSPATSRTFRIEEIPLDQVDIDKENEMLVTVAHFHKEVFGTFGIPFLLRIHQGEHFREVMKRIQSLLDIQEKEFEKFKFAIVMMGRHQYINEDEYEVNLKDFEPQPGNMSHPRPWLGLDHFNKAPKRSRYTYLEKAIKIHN

In the case of `COc1cc(/C=C/C(=O)CC(=O)/C=C/c2ccc(O)c(OC)c2)ccc1O` [Curcumin], the transduction rate (γδ2 T cells [1]; 10 uM, day 10, control around 5%) is reported as “higher than 20%”, the “effect on transduction rate” value (γδ2 T cells [1]; 100 uM (highest dosage)) is reported as “slightly enhance the transduction rate” and the “effect on transduction rate” value (γδ2 T cells [1]; luM (low dosage)) is reported as “did not enhance the transduction rate”. The cell growth (γδ2 T cells [2]; 10 uM) was “inhibited the cell growth slightly”, the cell growth (γδ2 T cells [2]; 100 uM) was “significantly impaired the cell growth” and the cell growth (γδ2 T cells [2]; luM (low dosage)) was “enhanced the cell growth”. For the same molecule, the “effect on transduction rate of γδ1 T cells” value (“effect … of γδ1 T cells” below) (γδ1 T cells; 10 uM) was “could improve the transduction rate”.
With `C[C@@H]1C[C@H]2[C@@H]3CCC4=CC(=O)C=C[C@]4(C)[C@@]3(F)[C@@H](O)C[C@]2(C)[C@@]1(O)C(=O)CO` [Dexamethasone] the transduction rate (γδ2 T cells [1]; 6.4 uM, control around 5% at Day10) was “higher than 25%” and the cell growth (γδ2 T cells [2]; 0.064 uM to 6.4 uM) was “did not impair the cell growth”.
For `Cc1ccc(S(=O)(=O)/C=C/C#N)cc1` [BAY11-7082], the “effect on transduction rate” value (γδ2 T cells [1]; 0.5 uM to 50 uM) was “enhance the transduction rate in a dosage dependent manner”, the transduction rate (γδ2 T cells [1]; 50 uM, control around 5% at Day10) was “higher than 70%” and the cell growth (γδ2 T cells [2]; 0.5 uM to 50 uM, higher dosage, less total cell number) was “impaired the cell growth in a dosage dependent manner”. For the same molecule, the “effect … of γδ1 T cells” value (γδ1 T cells; 50 uM) was “could improve the transduction rate”, the IC50 [3] was 0.19 µM and the IC50 [4] was 0.96 µM.
In the case of `CC(C)C[C@H](NC(=O)[C@H](Cc1ccccc1)NC(=O)c1cnccn1)B(O)O` [Bortezomib], the transduction rate (γδ2 T cells [1]; 0.04 uM, control around 5% at Day10) is reported as ~50%, the transduction rate (γδ2 T cells [1]; 0.4 uM and 4 uM, control around 5% at Day10) is reported as “higher than 20%” and the cell growth (γδ2 T cells [2]; 0.04 uM, 0.4 uM, 4 uM) is reported as “impaired the cell growth in a dosage dependent manner”. For the same molecule, the cell number (γδ2 T cells [2]; 0.4 uM and 4 uM) was “significantly cell number loss” and the “effect … of γδ1 T cells” value (γδ1 T cells; 0.04 μM, 0.4 μM or 4 μM) was “All the molecules except for Bortezomib could improve the transduction rate”.
For `Nc1ncc2[nH]cnc2n1` [2-Aminopurine], the “effect on transduction rate” value (γδ2 T cells [1]; 5 uM to 500 uM) was “enhance the transduction rate in a dosage dependent manner”, the transduction rate (γδ2 T cells [1]; 500 uM, control around 5% at Day10) was “around 60%” and the cell growth (γδ2 T cells [2]; 5 uM to 500 uM) was “did not impair the cell growth”. The “effect … of γδ1 T cells” value (γδ1 T cells; 500 uM) was “could improve the transduction rate”.
With `COc1cc(O)c2c(c1)/C=C/C[C@H](O)[C@H](O)C(=O)/C=C\C[C@H](C)OC2=O` [(5Z)-7-Oxozeaenol] the transduction rate (γδ2 T cells [1]; 0.6 uM, control around 5% at Day10) was “higher than 20%”, the transduction rate (γδ2 T cells [1]; 6 uM, control around 5% at Day10) was “higher than 30%” and the “effect on transduction rate” value (γδ2 T cells [1]; 60 uM compared with 6 uM) was “did not perform better to improve the transduction rate”. The cell growth (γδ2 T cells [2]; 0.6 uM and 6 uM) was “did not influence the cell growth”, the cell growth (γδ2 T cells [2]; 60 uM compared with 6 uM) was “impaired the cell growth” and the “effect … of γδ1 T cells” value (γδ1 T cells; 6 uM) was “could improve the transduction rate”.
With `O=C(Nc1nc2ccccc2n1CCN1CCOCC1)c1cccc([N+](=O)[O-])c1` [IRAK1/4 Inhibitor I] the “effect on transduction rate” value (γδ2 T cells [1]; 0.03 uM to 3 uM) was “enhance the transduction rate in a dosage dependent manner”, the transduction rate (γδ2 T cells [1]; 3 uM, control around 5% at Day10) was “higher than 35%” and the cell growth (γδ2 T cells [2]; 0.03 uM to 3 uM) was “did not impair the cell growth”. The “effect … of γδ1 T cells” value (γδ1 T cells; 0.3 uM) was “could improve the transduction rate”.
